According to article PMC9055273 (RSC Advances, 2020):

System: bacteria
Conditions: 10 μM

c1ccncc1 [pyridine]
Inhibition of bacterial growth: did not obviously inhibit bacterial growth
